The values below come from ChEMBL document CHEMBL1141625, “Potent, selective MCH-1 receptor antagonists” (Bioorg Med Chem Lett, 2008).

In data set [1] the target is Sodium-dependent dopamine transporter (Homo sapiens) (UniProt Q01959). The experiment in a line: Inhibition of DAT at 10 uM.
In data set [2] the target is T1, Melanin-concentrating hormone receptor 1 (Homo sapiens, UniProt Q99705). The experiment in a line: Binding affinity to MCHR1.
Data set [3] has as its target T1, Melanin-concentrating hormone receptor 1. Description: Antagonist activity at MCHR1 by cAMP assay. The data set is classed as functional. In general terms: cAMP levels reflect the balance of adenylyl cyclase and phosphodiesterase activity.
The target in data set [4] is D(3) dopamine receptor (Homo sapiens) (UniProt P35462). The experiment in a line: Inhibition of dopamine D3 receptor at 10 uM.
The target of data set [5] is T2, Alpha-2A adrenergic receptor (Homo sapiens) (UniProt P08913).
T2 sequence (whole entry): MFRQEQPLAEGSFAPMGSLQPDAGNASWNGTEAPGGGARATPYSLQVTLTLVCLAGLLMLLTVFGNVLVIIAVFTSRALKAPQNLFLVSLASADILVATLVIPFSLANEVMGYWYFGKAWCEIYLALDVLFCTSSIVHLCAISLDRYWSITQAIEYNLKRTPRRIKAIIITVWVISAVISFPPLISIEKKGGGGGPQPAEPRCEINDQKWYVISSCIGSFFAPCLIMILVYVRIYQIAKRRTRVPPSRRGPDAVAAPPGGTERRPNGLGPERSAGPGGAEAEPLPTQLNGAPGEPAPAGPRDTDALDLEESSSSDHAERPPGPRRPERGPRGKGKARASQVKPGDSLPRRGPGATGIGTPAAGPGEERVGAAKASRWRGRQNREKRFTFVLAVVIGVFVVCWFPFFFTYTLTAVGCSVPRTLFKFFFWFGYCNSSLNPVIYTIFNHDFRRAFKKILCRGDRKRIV
The experiment in a line: Inhibition of adrenergic alpha2A receptor at 10 uM.

In data set [6] the target is T3, Muscarinic acetylcholine receptor M2 (Homo sapiens) (UniProt P08172).
T3 sequence (whole entry): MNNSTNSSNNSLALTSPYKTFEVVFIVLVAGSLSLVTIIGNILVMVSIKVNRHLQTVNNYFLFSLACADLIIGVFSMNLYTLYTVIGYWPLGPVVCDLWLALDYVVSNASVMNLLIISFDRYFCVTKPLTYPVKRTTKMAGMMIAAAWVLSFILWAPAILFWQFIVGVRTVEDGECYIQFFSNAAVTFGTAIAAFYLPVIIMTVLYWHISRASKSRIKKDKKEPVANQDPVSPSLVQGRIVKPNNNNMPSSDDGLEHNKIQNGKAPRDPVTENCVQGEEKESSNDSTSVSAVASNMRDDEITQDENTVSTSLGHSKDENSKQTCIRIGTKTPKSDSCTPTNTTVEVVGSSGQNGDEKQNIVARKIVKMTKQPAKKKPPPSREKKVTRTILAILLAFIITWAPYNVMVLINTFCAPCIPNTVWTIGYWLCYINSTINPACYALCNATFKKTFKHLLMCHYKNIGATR
Description: Inhibition of muscarinic M2 receptor at 10 uM.

In data set [7] the target is Somatostatin receptor type 5 (Homo sapiens) (UniProt P35346). The experiment in a line: Inhibition of SST5 receptor at 10 uM.
Data set [8] deals with Sodium-dependent noradrenaline transporter (Homo sapiens) (UniProt P23975). The experiment in a line: Inhibition of NET at 10 uM.
In data set [9] the target is Sodium-dependent serotonin transporter (Homo sapiens) (UniProt P31645). The experiment in a line: Inhibition of SERT at 10 uM.
In data set [10] the target is T4, 5-hydroxytryptamine receptor 1A (Homo sapiens) (UniProt P08908).
T4 sequence (whole entry): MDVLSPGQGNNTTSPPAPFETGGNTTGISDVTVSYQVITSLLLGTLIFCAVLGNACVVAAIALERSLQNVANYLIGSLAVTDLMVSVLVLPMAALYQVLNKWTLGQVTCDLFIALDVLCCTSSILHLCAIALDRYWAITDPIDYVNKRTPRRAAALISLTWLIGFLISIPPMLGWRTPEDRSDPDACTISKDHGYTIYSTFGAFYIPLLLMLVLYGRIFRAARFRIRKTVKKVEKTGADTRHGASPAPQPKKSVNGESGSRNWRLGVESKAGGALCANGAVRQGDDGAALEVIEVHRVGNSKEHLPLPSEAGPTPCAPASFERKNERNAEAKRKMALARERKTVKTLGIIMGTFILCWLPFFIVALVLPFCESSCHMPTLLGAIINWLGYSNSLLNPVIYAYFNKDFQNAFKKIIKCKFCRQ
The experiment in a line: Inhibition of 5HT1A receptor at 10 uM.

Data set [11] concerns the target T5, 5-hydroxytryptamine receptor 2C (Homo sapiens) (UniProt P28335).
T5 sequence (whole entry): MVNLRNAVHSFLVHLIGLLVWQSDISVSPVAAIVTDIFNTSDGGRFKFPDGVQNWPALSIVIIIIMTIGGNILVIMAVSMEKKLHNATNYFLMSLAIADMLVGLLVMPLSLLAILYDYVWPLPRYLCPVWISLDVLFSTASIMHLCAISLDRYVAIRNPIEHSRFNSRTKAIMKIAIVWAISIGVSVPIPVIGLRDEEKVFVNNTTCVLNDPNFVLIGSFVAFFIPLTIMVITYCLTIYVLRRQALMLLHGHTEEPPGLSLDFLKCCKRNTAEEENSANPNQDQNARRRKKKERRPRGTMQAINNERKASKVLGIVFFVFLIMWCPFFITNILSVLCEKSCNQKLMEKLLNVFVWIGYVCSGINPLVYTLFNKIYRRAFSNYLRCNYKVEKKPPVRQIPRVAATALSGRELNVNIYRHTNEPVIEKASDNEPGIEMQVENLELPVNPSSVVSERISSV
Description: Inhibition of 5HT2C receptor at 10 uM.

The nature of data set [12]: AUC in Sprague-Dawley rat plasma at 5 mg/kg, iv or 30 mg/kg, po. The data set is classed as ADME, organism-based.
The nature of data set [13]: Cmax in Sprague-Dawley rat at 5 mg/kg, iv or 30 mg/kg, po. Format: ADME, organism-based. To be noted: in vivo.
Data set [14] in a line: Clearance in Sprague-Dawley rat at 5 mg/kg, iv or 30 mg/kg, po. Conditions: in vivo. Format: ADME, organism-based.
The nature of data set [15]: Half life in Sprague-Dawley rat at 5 mg/kg, iv or 30 mg/kg, po. Format: ADME, organism-based. To be noted: in vivo.
The nature of data set [16]: Volume of distribution at steady state in Sprague-Dawley rat at 5 mg/kg, iv or 30 mg/kg, po. Conditions: in vivo, read-out: Vdss. The data set is classed as ADME, organism-based.
Data set [17] is described as follows: Oral bioavailability in Sprague-Dawley rat at 30 mg/kg. Format: ADME, organism-based. To be noted: in vivo.
Data set [18] can be described thus: Ratio of drug level in brain to plasma in Sprague-Dawley rat after 5 mins. The data set is classed as ADME. To be noted: brain and plasma, read-out: BPR.
Data set [19] deals with Rattus norvegicus. Description: Reduction of food intake in high fat diet fed Sprague-Dawley rat at 30 mg/kg, po bid. The data set is classed as functional. More on the design: scale not given: the % may be the effect or the level left.
Data set [20] concerns Rattus norvegicus. Description: Reduction of body weight in high fat diet fed Sprague-Dawley rat at 30 mg/kg, po bid after 12 weeks. More on the design: scale not given: the % may be the effect or the level left. The data set is classed as functional.
Data set [21] is filed under the species Rattus norvegicus. The experiment in a line: Toxicity in high fat diet fed Sprague-Dawley rat after 12 weeks. Format: organism-based. Conditions: in vivo, 2016 h.

Chain of D(3) dopamine receptor (Homo sapiens) (P35462 whole entry): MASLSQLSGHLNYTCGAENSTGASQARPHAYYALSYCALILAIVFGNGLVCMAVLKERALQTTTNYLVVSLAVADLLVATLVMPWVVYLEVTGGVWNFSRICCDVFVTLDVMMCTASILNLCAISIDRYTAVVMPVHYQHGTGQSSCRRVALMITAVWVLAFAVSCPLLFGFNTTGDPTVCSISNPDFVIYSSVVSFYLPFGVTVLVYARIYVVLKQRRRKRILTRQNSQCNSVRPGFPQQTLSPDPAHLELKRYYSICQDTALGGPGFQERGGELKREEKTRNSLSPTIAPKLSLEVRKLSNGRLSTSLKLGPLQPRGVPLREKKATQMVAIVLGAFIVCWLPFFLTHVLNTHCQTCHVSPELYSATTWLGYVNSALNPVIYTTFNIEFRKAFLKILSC
Chain of Somatostatin receptor type 5 (Homo sapiens) (P35346 whole entry): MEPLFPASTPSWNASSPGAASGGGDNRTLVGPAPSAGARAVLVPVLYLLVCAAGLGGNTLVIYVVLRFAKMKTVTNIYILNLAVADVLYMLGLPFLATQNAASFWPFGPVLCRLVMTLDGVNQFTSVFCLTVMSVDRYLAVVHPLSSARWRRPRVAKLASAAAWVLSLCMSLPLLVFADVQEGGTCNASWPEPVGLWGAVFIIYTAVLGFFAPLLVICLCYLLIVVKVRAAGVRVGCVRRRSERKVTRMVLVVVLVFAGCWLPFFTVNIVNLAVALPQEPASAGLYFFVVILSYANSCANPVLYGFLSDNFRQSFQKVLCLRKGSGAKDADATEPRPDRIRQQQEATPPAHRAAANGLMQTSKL
T1 sequence (Q99705 whole entry): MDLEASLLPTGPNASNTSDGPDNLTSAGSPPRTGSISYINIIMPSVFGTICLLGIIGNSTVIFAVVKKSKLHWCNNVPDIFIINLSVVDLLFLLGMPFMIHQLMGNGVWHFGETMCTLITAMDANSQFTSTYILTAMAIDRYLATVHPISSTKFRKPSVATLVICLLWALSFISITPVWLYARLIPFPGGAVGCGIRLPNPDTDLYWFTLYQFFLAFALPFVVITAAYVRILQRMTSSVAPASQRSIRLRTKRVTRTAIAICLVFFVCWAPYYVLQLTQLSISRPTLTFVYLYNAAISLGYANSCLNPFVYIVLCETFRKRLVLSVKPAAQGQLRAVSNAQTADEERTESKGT
Chain of Sodium-dependent dopamine transporter (Homo sapiens) (Q01959 whole entry): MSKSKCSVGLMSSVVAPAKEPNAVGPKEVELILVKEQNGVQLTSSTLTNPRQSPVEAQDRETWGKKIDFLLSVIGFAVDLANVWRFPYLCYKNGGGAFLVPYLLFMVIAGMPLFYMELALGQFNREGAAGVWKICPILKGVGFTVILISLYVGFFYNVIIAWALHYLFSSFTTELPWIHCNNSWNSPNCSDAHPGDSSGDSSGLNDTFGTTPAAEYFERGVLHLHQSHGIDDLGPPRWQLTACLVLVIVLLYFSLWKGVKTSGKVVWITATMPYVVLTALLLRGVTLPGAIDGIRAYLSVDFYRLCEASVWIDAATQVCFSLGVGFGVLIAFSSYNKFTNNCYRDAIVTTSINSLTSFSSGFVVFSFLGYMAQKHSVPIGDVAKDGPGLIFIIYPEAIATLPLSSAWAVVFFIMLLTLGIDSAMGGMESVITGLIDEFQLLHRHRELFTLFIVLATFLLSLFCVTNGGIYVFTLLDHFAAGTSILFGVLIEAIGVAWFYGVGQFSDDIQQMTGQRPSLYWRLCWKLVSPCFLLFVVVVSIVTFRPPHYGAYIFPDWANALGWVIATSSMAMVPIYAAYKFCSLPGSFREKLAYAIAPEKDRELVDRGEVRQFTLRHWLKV
Chain of Sodium-dependent serotonin transporter (Homo sapiens) (P31645 whole entry, looked up): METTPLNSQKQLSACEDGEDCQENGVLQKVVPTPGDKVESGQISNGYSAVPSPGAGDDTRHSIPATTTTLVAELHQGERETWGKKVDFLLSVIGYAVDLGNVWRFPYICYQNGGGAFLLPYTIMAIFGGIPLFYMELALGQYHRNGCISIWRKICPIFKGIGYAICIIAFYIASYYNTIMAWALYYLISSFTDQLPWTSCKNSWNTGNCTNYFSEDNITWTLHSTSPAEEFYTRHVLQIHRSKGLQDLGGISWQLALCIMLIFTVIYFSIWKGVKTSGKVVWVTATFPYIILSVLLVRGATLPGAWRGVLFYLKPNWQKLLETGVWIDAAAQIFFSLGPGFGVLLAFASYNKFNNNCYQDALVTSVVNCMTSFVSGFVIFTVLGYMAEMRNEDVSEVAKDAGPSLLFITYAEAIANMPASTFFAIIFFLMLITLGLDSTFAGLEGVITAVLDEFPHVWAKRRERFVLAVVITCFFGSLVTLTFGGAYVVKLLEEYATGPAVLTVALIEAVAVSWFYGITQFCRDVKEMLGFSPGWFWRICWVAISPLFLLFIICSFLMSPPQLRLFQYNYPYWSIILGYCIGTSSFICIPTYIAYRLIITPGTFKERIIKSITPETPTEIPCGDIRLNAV
Chain of Sodium-dependent noradrenaline transporter (Homo sapiens) (P23975 whole entry): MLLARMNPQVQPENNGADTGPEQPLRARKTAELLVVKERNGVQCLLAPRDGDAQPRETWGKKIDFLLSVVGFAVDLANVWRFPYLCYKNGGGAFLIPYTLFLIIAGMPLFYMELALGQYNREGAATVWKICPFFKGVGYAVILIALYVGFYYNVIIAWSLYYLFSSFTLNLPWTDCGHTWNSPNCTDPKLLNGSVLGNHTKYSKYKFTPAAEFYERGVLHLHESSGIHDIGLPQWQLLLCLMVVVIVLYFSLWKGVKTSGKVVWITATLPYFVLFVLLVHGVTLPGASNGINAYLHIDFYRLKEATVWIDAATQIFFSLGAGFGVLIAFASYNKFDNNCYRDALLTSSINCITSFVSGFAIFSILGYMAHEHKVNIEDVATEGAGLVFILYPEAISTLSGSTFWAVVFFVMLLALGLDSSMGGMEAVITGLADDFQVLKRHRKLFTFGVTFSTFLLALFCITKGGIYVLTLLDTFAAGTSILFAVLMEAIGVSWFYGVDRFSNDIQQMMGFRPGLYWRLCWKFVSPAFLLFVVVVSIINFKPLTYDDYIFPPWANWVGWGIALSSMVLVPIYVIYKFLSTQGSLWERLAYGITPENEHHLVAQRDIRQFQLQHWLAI

Consider `CO[C@@H]1CN(C[C@H]2Cc3ccc(Br)cc3C2)CC[C@H]1n1c(C)nc2cc(C)ccc21`, for which the inhibition (usually the drop in the measured response relative to a control, in per cent) was 80% in data set [1]; 84% in [4]; 81% in [5]; 48% in data set [6]; 54% in data set [7]; 69% in data set [8]. Also, the values for the inhibition in data set [9] and in data set [10] were 59% and 31%, respectively. In data set [2], the Ki (in general, a measure of affinity in units of concentration, obtained from inhibition or displacement) is 5 nM. Also, the EC50 (in general, the concentration needed to bring the measured effect to its halfway point) in [3] is 20 nM. For the same compound, the Efficacy in data set [3] turned out to be 92%.
In the case of `CO[C@@H]1CN(C[C@H]2Cc3ccc(C#N)cc3C2)CC[C@H]1n1c(C(C)(C)O)nc2cc(C)c(F)cc21`, the Ki in [2] was found to be 0.5 nM.
On to `CO[C@@H]1CN(C[C@H]2Cc3ccc(Br)cc3C2)CC[C@H]1n1c(C(C)(C)O)nc2cc(C)ccc21`, for which the inhibition in data set [1] is 68%; in data set [4], 79%; in [5], 34%; in [6] it was -8%; in data set [11] it was 14%; in data set [8], 77%. The results for the inhibition in data set [9] and in data set [10] were 28% and 17%, respectively. In data set [2], this compound registered a Ki of 10 nM. The compound also had an EC50 in data set [3] of 30 nM. For the same compound, the Efficacy in data set [3] came out at 98%.
As for `COC(=O)Nc1ccc2c(c1)C[C@@H](CN1CC[C@@H](n3c(C)nc4cc(C)ccc43)[C@H](OC)C1)C2`, the inhibition came out at 65% in data set [1]; 28% in data set [4]; 14% in data set [5]; 22% in data set [6]; 8% in data set [11]; 10% in [7]. In addition, the inhibition in data set [8] turned out to be 64%; in [9], 95%; in data set [10], 29%. The compound further returned a Ki in data set [2] of 20 nM. In [3], this compound had an EC50 of 20 nM. This compound returned an Efficacy in data set [3] of 81%.
With `CO[C@H]1CN(CCCc2cccc(NC(=O)C3CC3)c2)CC[C@@H]1n1c(C)nc2cc(C)ccc21`, the inhibition in data set [1] worked out at 32%; in data set [4], 52%; in data set [5] it was 15%; in data set [6], 11%; in data set [7], 16%; in data set [8] it was 61%. Besides, in [9], the inhibition was found to be 67%. The compound also yielded a Ki in data set [2] of 5.2 nM. This compound also registered an EC50 in [3] of 20 nM. The compound also came in with an Efficacy in [3] of 82%.
Regarding `CO[C@@H]1CN(CC2Cc3ccccc3C2)CC[C@H]1n1c(C)nc2cc(C)ccc21`, the inhibition in data set [1] is 8%; in [4], 40%; in data set [5] it was 33%; in data set [6], 6%; in data set [11], -8%; in data set [7], -2%. Also, the inhibition was determined as 24% in data set [8], 14% in data set [9] and 63% in data set [10]. Besides, in data set [2], affinity was put at a Ki of 47 nM. Moreover, in data set [3], the midpoint of the response, the EC50, lay at 69 nM. The Efficacy in [3] stood at 90%.
For `Cc1ccc2c(c1)nc(C)n2C1CCN(CCCc2cccc(NC(=O)C(C)C)c2)CC1`, the inhibition in data set [1] stood at 23%; in [5] it was 37%; in [6], 18%; in data set [11] it was 4%; in [7], 13%; in [8], 57%. Also, the inhibition in data set [9] turned out to be 83%. Further, in [2], the Ki was determined as 25 nM. Further, a half-maximal response in [3] (EC50) required 175 nM. The same compound showed an Efficacy in [3] of 96%.
`CO[C@@H]1CN(C[C@H]2Cc3ccc(C#N)cc3C2)CC[C@H]1n1c(C(C)(C)O)nc2cc(C)ccc21`: the inhibition in data set [1] was -6%; in data set [4], 22%; in data set [5] it was 12%; in data set [6], 3%; in data set [7], 23%; in data set [8] it was 12%. Moreover, the inhibition in [9] came to 6%; in data set [10], 14%. The compound further registered a Ki in data set [2] of 3 nM. This compound also had an EC50 in data set [3] of 17 nM. The Efficacy in data set [3] is 85%. For the same compound, the AUC (in general, concentration integrated over time) in [12] turned out to be 4730 ng·h/mL. For the same compound, the Cmax (as a rule, the highest concentration seen after dosing) in data set [13] turned out to be 1300 ng/mL. Moreover, the clearance in data set [14] was found to be 49.5 mL/min/kg. The half-life – broadly, how long it takes for the measured level to halve – in data set [15] is 114 min. Besides, in data set [16], the Vd is 3.6 L/kg. For the same compound, the bioavailability (in general, the share of a dose that reaches the circulation, judged against a reference dose that is usually intravenous) in [17] is 47%. The Kp at 5 min in data set [18] was 0.9. The results for the Activity in the data set on Rattus norvegicus [19], in the data set on Rattus norvegicus [20] and in the data set filed under Rattus norvegicus [21] were 28%, -0.7% and “Non-toxic”, respectively.
With `CO[C@@H]1CN(C[C@@H]2Cc3ccc(NC(=O)C(C)C)cc3C2)CC[C@H]1n1c(C)nc2cc(C)ccc21`, the inhibition in [1] came out at 10%; in data set [5], 7%; in data set [6] it was 3%; in data set [11] it was 3%; in [8] it was 1%; in data set [9] it was 32%. For the same compound, in data set [2], the affinity, expressed as Ki, was 31 nM. The response in [3] was half-maximal at 40 nM (EC50). In data set [3], this compound registered an Efficacy of 74%. In addition, the AUC in data set [12] stood at 8520 ng·h/mL. Also, in data set [13], the peak level (Cmax) was 1280 ng/mL. The compound further displayed a clearance in [14] of 36.5 mL/min/kg. The compound also gave a half-life in data set [15] of 150 min. In addition, the Vd in data set [16] is 14 L/kg. The bioavailability in data set [17] was determined as 61%. Moreover, the Kp at 5 min in data set [18] was found to be 0.06.
